Data published in US20250257062A1, “GLP-1R Agonist and Therapeutic Method Thereof” (Ascletis Pharma (China) Co., Limited, priority 2023, published 2025).

Legend:
[1] = target: hGLP-1R (Homo sapiens (Human), UniProt P43220); assay: hGLP-1R cAMP assay (agonist cAMP stimulation, Flp-In-293-GLP1R cells); type: cell-based; settings: 30 min at 37° C.
Method: hGLP-1R cAMP Assay • 1. Cell line and reagent preparation • 1) Cell line: Flp-In-293-GLP1R • 2) Medium: DMEM+10% FBS+1×Penicillin-Streptomycin+200 μg/mL HB • 3) Test buffer: 1×HBSS+20 mM HEPES+0.1% BSA+500 μM IBMX • 2. Agonist test • a) Flpin-293-GLP1R cells were incubated in a 384-well assay plate (6007680-50, PE) using complete medium with 2,000 cells per well. • b) Prepared a 4× […] working solution with assay buffer. • c) Added 5 μL of 4× Compound Working Solution to the cell plate and incubated at 37° C. for 30 minutes. • d) Diluted Eu-cAMP tracer (1/50) with lysis buffer and added 10 μl/well to the assay plate. • e) Diluted Ulight-anti-cAMP (1/150) with lysis buffer and added 10 μl/well to the assay plate. • f) Incubated at constant temperature for 1 hour. • g) Read the plate on Envision 2105 plate reader at […]. • 3. Data Analysis • 3.1 The formula for calculating % Activity was as follows
[formula] • 3.2 Calculate EC50 and plot the effect-dose curve for cmpds:
[formula] • X: logarithm of agonist concentration; Y: percentage activity.

[2] = Single-dose oral administration pharmacokinetic study in SD rats; type: in vivo; settings: Sprague-Dawley, rat, 5 mg/kg, plasma; for Cmax: male SD rats; for AUC(0-t): male, po, exposure over 0-24 hours
Method: Single-dose oral administration pharmacokinetic (PK) studies in Sprague-Dawley (SD) rats Pharmacokinetic (PK) studies after a single-dose oral administration for compounds.
Protocol: Animals: Male Sprague-Dawley (SD) rats; Solvent: Solutol: PEG400: Tween80: Saline=10:40:2:48 (v/v/v/v); Dose: 5 mg/kg; Dosing concentration: 0.5 mg/mL in the solvent; Dosing volume: 10 mL/kg. Sample Collection: At each time point, approximately 0.15 mL of blood was drawn from the jugular vein sinus, and the collected whole blood was placed in an anticoagulant tube containing EDTA-K2. After collecting blood samples, they were processed with protein precipitation and then analyzed by LC-MS/MS.

hGLP-1R, sequence (P43220 24-463): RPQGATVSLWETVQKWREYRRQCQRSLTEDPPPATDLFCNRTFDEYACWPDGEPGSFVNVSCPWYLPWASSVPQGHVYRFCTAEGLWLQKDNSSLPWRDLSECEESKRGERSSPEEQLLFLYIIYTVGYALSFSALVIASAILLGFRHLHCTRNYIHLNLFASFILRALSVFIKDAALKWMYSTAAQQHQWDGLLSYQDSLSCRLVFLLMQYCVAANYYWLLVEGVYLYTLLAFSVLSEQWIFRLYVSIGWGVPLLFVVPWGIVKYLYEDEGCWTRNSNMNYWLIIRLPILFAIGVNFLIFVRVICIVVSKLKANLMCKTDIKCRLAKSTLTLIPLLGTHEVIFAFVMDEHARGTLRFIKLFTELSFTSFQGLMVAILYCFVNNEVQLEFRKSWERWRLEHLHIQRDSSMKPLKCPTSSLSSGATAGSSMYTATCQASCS

Row | EC50 [1] [nM] | Cmax [2] [ng/mL] | AUC(0-t) [2] [ng·h/mL] | Structure (SMILES)
1 | 0.02 | 5610 | 71200 | C[C@H]1c2c(nn(-c3ccc(F)c(C4CC4)c3)c2-n2ccn(-c3ccc4c(cnn4C4CC4)c3F)c2=O)CCN1C(=O)c1cc2cc(C3CCOCC3)ccc2n1[C@@]1(c2noc(=O)[nH]2)C[C@@H]1C [Compound 33]
2 | 0.028 |  |  | C[C@H]1c2c(nn(-c3ccc(F)c(C4CC4)c3)c2-n2ccn(-c3ccc(CP(C)(C)=O)cc3)c2=O)CCN1C(=O)c1cc2cc(C3CCOCC3)ccc2n1[C@@]1(c2noc(=O)[nH]2)C[C@@H]1C [Compound 51]
3 | 0.015 | 3210 | 29600 | C[C@H]1c2c(nn(-c3ccc(F)c4c3CCC4)c2-n2ccn(-c3ccc4c(cnn4C4CC4)c3F)c2=O)CCN1C(=O)c1cc2cc(C3CCOCC3)ccc2n1[C@@]1(c2noc(=O)[nH]2)C[C@@H]1C [Compound 45]
